Test system: HepG2 viability, CellTiter-Glo ATP luminescence, 72 h
Experiment: HepG2 cell cytotoxicity, dose response, cytotoxicity control, CellTiter-Glo luminescence, cherry-pick, set 2 (AID 743395)

| SMILES | AC35 [µM] |
| --- | --- |
| C[C@@H]1O[C@@H](O[C@@H]2C=C3CC[C@@H]4C(CC[C@]5(C)[C@@H](c6ccc(=O)oc6)CC[C@]45O)[C@@]3(C)CC2)[C@H](O)[C@H](O)[C@H]1O (some centres undefined) | 0.116 |
| CCOC(=O)[C@]12CCCC=C1N(Cc1cccc3ccccc13)C(=O)[C@H](CC(=O)NCc1cccc(C(F)(F)F)c1)C2 | 9.99 |
| COc1ccc(S(=O)(=O)NCc2ccccn2)cc1NC(=O)c1ccccc1F | 18.5 |
| COc1ccc(C2CC(c3cccc(Br)c3)=NN2c2ccc(S(N)(=O)=O)cc2)cc1 (centres undefined) | 18.1 |
| CCCC(=O)Nc1nc2ccc(NC(=O)c3c(F)c(F)c(OC)c(F)c3F)cc2s1 | 7.54 |
| O=C(Cc1ccccc1)N1CC(=O)N2[C@H](CO)[C@@H](c3ccc(-c4ccccc4)cc3)[C@@H]2C1 | 18.7 |
| Cc1noc(C)c1COc1ccc(C(=O)NNC(=O)c2ccccc2)cc1 | 12.2 |
| CCCCn1c(CN2CCN(c3cccc(Cl)c3)CC2)nc2c1c(=O)[nH]c(=O)n2C | 12.3 |
| COc1ccc2c(c1)sc(N)[n+]2Cc1cc(C)cc2cccnc12 | 12.4 |
| Cc1ccccc1S(=O)(=O)N1C[C@@H]2N[C@H](C1)C2c1ccc(-c2cccc(C#N)c2)cc1 (some centres undefined) | 9.94 |
| COc1ccccc1C#Cc1ccc2c(c1)O[C@@H](CN(C)Cc1cccnc1)[C@H](C)CN([C@H](C)CO)S2(=O)=O | 22.4 |
| CCN(Cc1ccccc1)c1ccc(/C=N/N=C(N)N)cc1 | 6.82 |
| CC1(C(=O)NCc2ccccc2)Cc2c(-c3ccc(C(N)=O)cc3)ccnc2O1 (centres undefined) | 13.8 |
| CC(C)n1cc(/C=C/c2cc[n+](C)cc2)c2ccccc21 | 11.2 |
| CC(C)N1CCc2c(sc(NC(=O)c3ccc([N+](=O)[O-])o3)c2C(N)=O)C1 | 4.77 |
| CN(Cc1ccccc1)S(=O)(=O)c1ccc(NC(=S)NC(=O)C2CCCC2)cc1 | 9.62 |
| O=C(Nc1ccc(OC(F)(F)F)cc1)c1ccc2c(c1)no[n+]2[O-] | 17.6 |
| COc1ccc(Nc2nc3cc(-c4sccc4C)sc3c(=O)n2C)cc1OC | 5.88 |
| Cc1cc(N/N=C/c2ccccc2O)c2ccccc2n1 | 19.7 |
| COc1cc(OC)cc(C(=O)OCC(=O)NC(c2ccccc2)c2ccccc2)c1 | 16.2 |
| CN(C)C(=O)C(CCN1CCC(O)(c2ccc(Cl)cc2)CC1)(c1ccccc1)c1ccccc1 | 10.1 |
| Cc1cccc(Nc2nc(N)nc(-c3oc4ccccc4c3C)n2)c1 | 15.4 |
| Cc1ccc2[nH]c(C(=O)N/N=C/c3ccccc3O)c(C)c2c1 | 2.41 |
| Cc1cc2[nH]c3c(c[n+](C)c4ccccc34)c2cc1C | 2.58 |
| CCC(COC(=O)c1cc(OC)c(OC)c(OC)c1)(c1ccccc1)N(C)C (centres undefined) | 18.4 |
| CCN(CC)CCCNc1nc2ccccc2c2nc(-c3ccncc3)nn12 | 7.23 |

| SMILES | AC35 [µM] |
| --- | --- |
| CCOC(=O)c1ccc(N2CCOCC2)c(NC(=O)c2c(-c3ccccc3)noc2C)c1 | 3.87 |
| O=c1c2ccccc2sc2c(CO)ccc(NCCN3CCCCC3)c12 | 4.82 |
| COC(=O)C1=CN(c2ccc(OC)cc2OC)C(N)=C(C#N)C1c1ccccc1F (centres undefined) | 6.17 |
| COc1ccccc1N1CCN(C(=O)c2ccc(-c3ccc(Cl)cc3)o2)CC1 | 3.02 |
| COc1ccccc1C(=O)NC(=S)/C=C1/N(C)c2ccccc2C1(C)C | 16 |
| Cc1ccc(N(C)S(=O)(=O)c2ccc(-c3cnc(C4CC4)o3)cc2)cc1 | 8.88 |
| O=C(N/N=C/c1c(O)ccc2ccccc12)c1ccc(Br)o1 | 1.18 |
| COc1cc2c(-c3ccccc3)c(C)oc2cc1/C=N/NC(N)=S | 6.29 |
| O=C(Cc1ccc(Br)cc1)NCc1ccccc1 | 5.52 |
| COc1ccc(S(=O)(=O)Nc2cc3c(cc2C(C)=O)OCO3)cc1 | 12.9 |
| COc1ccc2c3c([nH]c2c1)[C@H](CO)N(S(C)(=O)=O)CC31CCN(Cc2cccc(F)c2)CC1 | 5.92 |
| C#C[C@]1(O)CC[C@H]2[C@@H]3CCc4cc(OC5CCCC5)ccc4[C@H]3CC[C@@]21C | 21 |
| O=C(Nc1ccc(Br)cn1)c1cccc2ccccc12 | 5.99 |
| Cc1cc(C(=O)N/N=C/c2ccc(N(C)C)cc2)c2ccccc2n1 | 8.84 |
| CN1/C(=C\C=C2/SC(=S)NC2=O)C(C)(C)c2ccccc21 | 17.9 |
| CCOC(=O)c1cc2c(=Cc3ccc(N(C)C)cc3)c3ccccc3n2[n+]1C | 16.6 |
| CN1c2ccc(-c3ccc(F)cc3)cc2[C@H]2[C@H](CCN2S(=O)(=O)c2cccc(F)c2)[C@H]1CO | 17.2 |
| OC[C@@H]1CN(Cc2ccc(-c3ccccc3)cc2)C[C@H](n2cnc3c(NC4CC4)ncnc32)O1 | 19.3 |
| O=c1ccc2c(-c3ccccc3)c3ccc(O)cc3oc-2c1 | 17.8 |
| CCN(CC)c1ccc(/C=N/NC(=O)c2cnccn2)c(O)c1 | 1.61 |
| Cc1ccc(/C=N/NC(=O)c2c(-c3ccccc3)noc2C)c(O)c1 | 18.4 |
| CCCNC(=O)c1ccc2c(=O)c(O)c(-c3cccc(Br)c3)[nH]c2c1 | 4.65 |
| CCOC(=O)c1ccc(Nc2sc(C(=O)c3cccc([N+](=O)[O-])c3)c(N)c2C#N)cc1 | 6.7 |
| CC1(C(=O)NCc2ccco2)Cc2c(-c3ccc4c(c3)OCO4)ccnc2O1 (centres undefined) | 9.85 |
| Oc1ccc(/C=N/Nc2nc(-c3ccccc3F)nc3ccccc23)c(O)c1 | 15.6 |
| Cc1nc(C)c(C(=O)NN=Cc2ccc(N(CCCl)CCCl)cc2)s1 | 11.8 |

| SMILES | AC35 [µM] |
| --- | --- |
| c1coc(-c2nc3ccccc3s2)c1 | 7.04 |
| O=C(C[C@@H]1CC[C@H]2[C@@H](COC[C@H](O)CN2Cc2ccc3c(c2)OCO3)O1)Nc1ccc(-c2ccccc2)cc1 | 16.8 |
| CC(C)(C)c1ccc(/C=C/C(=O)c2ccc(NC3=NCCCS3)cc2)cc1 | 18.2 |
| CC(=O)NC(c1ccc2ccccc2c1)c1ccc2cccnc2c1O (centres undefined) | 0.641 |
| CCOC(=O)c1sc(Nc2nc(C)cc(C)n2)nc1C | 11.3 |
| COc1cc2c(C#CCCO)c(-c3ccsc3)oc(=O)c2cc1OC | 21 |
| COC(=O)c1ccc(S(=O)(=O)N2CCc3ccccc32)cc1 | 16.1 |
| CC(C)(C)c1cc(C(=O)NN)n(Cc2ccc(Cl)cc2Cl)n1 | 18.7 |
| Cc1ccc(-c2ccc3c(c2)O[C@H](CN(C)Cc2ccccn2)[C@@H](C)CN([C@@H](C)CO)S3(=O)=O)cc1 | 16.8 |
| COc1cccc(C2c3cc4c(cc3OC(NNC(N)=O)C2C)OCO4)c1O (centres undefined) | 14.3 |
| COc1ccc(OC)c(/C(C)=N\NC(=O)c2cc3cc(Cl)ccc3n2C)c1 | 14 |
| COc1cccc(/C=N/NC(=O)C(=O)Nc2ccccc2OC(F)(F)C(F)F)c1O | 15 |
| COc1cc(/C=C(\C#N)c2nc3ccccc3[nH]2)cc(OC)c1O | 17.2 |
| O=C1c2ccccc2C(=O)c2c1cccc2N1CCCC1 | 18.9 |
| COCCCN=C1NN=C(c2cc(C)n(Cc3ccco3)c2C)CS1 | 6.71 |
| CCCn1c(CN2CCN(C(=O)OCC)CC2)nc2cc(NC(=O)CC)ccc21 | 18.9 |
| CCOC(=O)c1c(C)[nH]c(C(=O)N/N=C\c2ccccc2O)c1C | 2.34 |
| COc1nc(-c2ccccc2)cc(-c2ccc3c(c2)OCO3)c1C#N | 8.32 |
| COc1ccc2c3c([nH]c2c1)[C@@H](CO)N(C(=O)C1CCOCC1)CC31CCN(Cc2cccc(F)c2)CC1 | 1.04 |
| COc1cccc(-c2ccc(C3[C@@H]4CN(S(=O)(=O)c5cccc(OC)c5)C[C@H]3N4)cc2)c1 (some centres undefined) | 8.91 |
| Cc1ccnc(N2C(=O)c3cccc4c([N+](=O)[O-])ccc(c34)C2=O)c1 | 14.9 |
| Cc1cccc(N2CCN(C(=O)c3c(-c4ccccc4)noc3C)CC2)c1C | 4.42 |
| O=C(C1CCCCC1)N1CC(=O)N2[C@@H](CO)[C@H](c3ccc(C#Cc4cccc(F)c4)cc3)[C@@H]2C1 | 16.4 |
| COc1ccc(C(=O)c2ccc(N(C)C)cc2)c(OC)c1 | 14.9 |
| COc1cc(OC)c(-c2c3cc(O)c(=O)cc-3oc3cc(O)c(O)cc23)cc1OC | 13.2 |
| N#Cc1c(-c2ccc(F)cc2)c(-c2ccc(F)cc2)nn(CCO)c1=O | 4.03 |

| SMILES | AC35 [µM] |
| --- | --- |
| CC(=O)NC(c1ccc(Cl)cc1)c1ccc2cccnc2c1O (centres undefined) | 2.14 |
| COc1ccc2sc3cccc(NCCN(C)C)c3c(=O)c2c1 | 10.4 |
| COc1ccc(OC)c(C(=O)Cn2nnc(-c3ccc(N4CCOCC4)cc3)n2)c1 | 16.6 |
| COc1ccc(CNS(=O)(=O)c2cc(-c3cc(C)no3)ccc2C(C)C)cc1 | 7.14 |
| COc1cc(OC)c2c(-c3cccc(-c4cccc(N)c4)c3)cc(=O)oc2c1 | 13.4 |
| CCOc1ccc(-c2cc(C(=O)N3CCN(c4ccccn4)CC3)c3ccccc3n2)cc1 | 10.9 |
| CN1C(=CC=C2C=C(I)C(=O)C(I)=C2)C(C)(C)c2ccccc21 | 3.56 |
| CC(C)C[C@H]1CN([C@@H](CC(C)C)CN2CCC[C@@H]2CN2C(=S)NC[C@@H]2Cc2ccc(O)cc2)C(=S)N1CCc1ccccc1 | 19.2 |
| O=S(=O)(Nc1cc(Sc2cccc3cccnc23)c(O)c2ccccc12)c1ccccc1 | 7.49 |
| COc1ccc2[nH]c(C(=O)N/N=C/c3ccc(O)cc3O)cc2c1 | 3.37 |
| COc1ccc(-c2ccnc(-c3ccc(O)cc3)n2)cc1 | 10.1 |
| COc1cccc(S(=O)(=O)N2C[C@@H]3N[C@H](C2)C3c2ccc(-c3ccccc3F)cc2)c1 (some centres undefined) | 11.3 |
| Nc1nc(Cl)nc2c1ncn2C1CC(O)C(CO)O1 (centres undefined) | 4.65 |
| COC(=O)CSC1=C(C#N)C(c2ccc(C)o2)CC(=O)N1 (centres undefined) | 19.1 |
| COc1cc(OC)cc(C(=O)c2c(C)c(C#N)c3ccccn23)c1 | 9.29 |
| COC(=O)c1ccc(/C=C/c2c(-c3ccc(OC)cc3)oc3ccc(N4CCOCC4)cc23)cc1 | 16 |
| CCc1ccc(-c2nc(C(N)=O)c3[nH]c(=O)n(-c4ccccc4OC)c3n2)cc1 | 9.05 |
| CC(=NNC(=S)N1CCCCC1)c1cccc(C)n1 | 15.6 |
| C[C@H](CO)N1C[C@H](C)[C@@H](CN(C)Cc2ccc(Cl)c(Cl)c2)Oc2ccc(NC(=O)Nc3ccc(C(F)(F)F)cc3)cc2CC1=O | 10.5 |
| NC(=O)N=Nc1c2[nH]c3ccccc3nc-2c2ccccc12 | 16.6 |
| CCCC(=O)Nc1ccc2c(c1)nc(CN1CCN(C(=O)OCC)CC1)n2CC | 18.9 |
| COc1ccc(S(=O)(=O)N(C(=O)C(C)C)c2ccc3oc(=O)sc3c2)cc1 | 17.1 |
| CN1C(=O)NC(=O)C2(CCCC2)C1=O | 9.42 |
| COc1ccc(NC(=O)C2(C)Cc3c(-c4cccc(NC(C)=O)c4)ccnc3O2)cc1 (centres undefined) | 4.15 |
| COc1cc(C(=O)Nc2ccccc2C(=O)Nc2ccccn2)cc(OC)c1OC | 4.9 |
| C=C1C(=O)O[C@@H]2[C@H]1[C@@H](OC(=O)/C(C)=C/C)C/C(C)=C\C(=O)/C=C(\C)[C@@H]2O | 8.97 |

Source: PubChem BioAssay AID743395 (Broad Institute, 2014)
